# Measurements: patent publication US8476255B2, “Histone deacetylase inhibitors” (Orchid Chemicals & Pharmaceuticals Limited, priority 2007, dated 2013)
# What was measured:
# U251 (glioma) cells = assay: Anti-cancer screen (MTT), U251; format: cell-based; conditions: Homo sapiens, U-251, U251, 48 hours, MTT
# Outline: (§1)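 A570 read-out after a 3 h MTT step and DMSO solubilisation; a separate plate measured at drug addition served as T0. Treatment lasted 48 h at five concentrations (0.01–100 μM) after 24 h attachment in DMEM/10% FBS; SAHA as standard.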
# [1] = system: HDAC (Mouse Liver Extract); assay: HDAC inhibition assay using Boc-Lys(Ac)-AMC substrate; format: biochemical; conditions: mouse liver enzyme
# Outline: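 Boc-Lys(Ac)-AMC substrate incubated with mouse liver extract as HDAC source, 5 min preincubation then 30 min at 37° C. Trypsin stop solution added (37° C., 15-30 min) to release AMC, read at ex 360/em 460 nm; buffer-only and substrate-only wells as blanks.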
# Acetylated histone (H3) = assay: Histone (H3) acetylation, sandwich ELISA in HCT116 lysate; format: cell-based; conditions: HCT116, 4 hours
# Description: Acetylated histone (H3), acetylated Tubulin and p21 levels were detected in cell lysate by sandwich ELISA method (Cell Signaling Technology, USA, Cat No: 7232, 7204 & 7167 respectively) by following manufacturer's instructions. Briefly, colon cancer cells (HCT116. 10,000/well) were incubated with test compound (1 and 10 μM) or medium (control) for 4 hours at 37° C. in CO2 incubator. The incubation lasted 18 hours for p21 induction. After incubation, cell lysates were prepared in cell lysis buffer by sonication on ice. The lysates were collected after centrifugation and subjected to ELISA test procedure. 100 μL of each diluted cell lysate in dilution buffer (1:1) was added to appropriate capture antibody coated microwells and incubated overnight at 4° C. After washing, 100 μL of detection antibody was added for 1 hour at 37° C. After second washing, 100 μL of HRP-linked secondary antibody was added for 30 min at 37° C. Finally, after appropriate washing, 100 μL of TMB substrate was added for 10 min at 37° C. followed by 100 μL of stop solution. The absorbance of individual wells was read using a spectrophotometer at 450 nm (A450).
# HCT 116 (colon) cells = assay: Anti-cancer screen (MTT), HCT 116; format: cell-based; conditions: Homo sapiens, HCT-116, HCT116, 48 hours, MTT
# Outline: as §1
# [2] = system: NCIH460, HCT116 and U251 cells; assay: Anti-cancer screen, mean GI50 over cell lines; format: cell-based; conditions: mean over cell lines; read-out: Cell growth inhibition Mean GI50
# Outline: as §1
# HCT116 (colon) xenograft = format: in vivo; conditions: oral gavage once every day for 21 days, vs vehicle treated control
# Description: Experiments were carried out using 6-8 week old female athymic SCID (Severe Combined Immune Deficient) mice. The mice were housed in Individually Ventilated Cages (IVC) at constant temperature (22±3° C.) and humidity (50±20%). They had free access to food and water. Tumors were obtained from ATCC, USA and maintained in vivo by subcutaneous (s.c.) passage of tumor fragments (appx 30 mg) in healthy mice according to standard reported procedures. All the animal protocols were approved by the Institutional Animal Ethics Committee, ORLL, Chennai. Each experimental group included 6-8 mice bearing s.c. tumors. Tumors were implanted into the axillary region by puncturing using a Trocar, and tumor growth was monitored by measurement of tumor diameters with a Vernier caliper. Tumor Volume (TV) was calculated according to the following formula: TV(mm^3)=L×W^2×0.5, […]
# Test compound was administered by oral gavage in a volume of 5-10 ml/kg. […] Tumor size was measured twice every week and body weight was recorded daily prior to dosing.
# Test compound (T) efficacy was assessed by calculating several parameters based on tumor volume (TV) with respect to untreated control (C). Parameters routinely assessed were T/C % [TVtest/TVcontrol×100] and Tumor Volume Inhibition (TVI=1−T/C %). […]
# Toxic effects of drug treatment were assessed by Body Weight Loss %. […]
smiles,measurement,setting,value
"COc1ccc(/C=C(/C(=O)NCc2ccc(C(=O)Nc3ccccc3N)cc2)c2ccc(F)cc2)cc1OC [Compound 19, N-(2-Aminophenyl)-4-((3-(3,4-dimethoxyphenyl)-2-(4-fluorophenyl)acrylamido)methyl)benzamide]",GI50,U251 (glioma) cells; read-out: Cell growth inhibition U251 (Glioma) GI50,0.3 µM
same,LC50 (concentration giving 50% net cell kill relative to the time-zero cell count),U251 (glioma) cells; read-out: Cell growth inhibition U251 (Glioma) LC50,4.8 µM
same,IC (TGI),U251 (glioma) cells; read-out: Cell growth inhibition U251 (Glioma) TGI,1.8 µM
same,HDAC inhibition % (1 μM),[1]; 1 μM,29.7%
same,HDAC inhibition % (10 μM),[1]; 10 μM,52.9%
same,IC50,[1],8.6 µM
same,H3 acetylation (Fold increase),Acetylated histone (H3); 1 μM,4 Fold increase
same,H3 acetylation (Fold increase),Acetylated histone (H3); 10 μM,16 Fold increase
same,GI50,HCT 116 (colon) cells; read-out: Cell growth inhibition HCT116 (Colon) GI50,0.3 µM
same,CC50,HCT 116 (colon) cells; read-out: Cell growth inhibition HCT116 (Colon) LC50,58 µM
same,IC (TGI),HCT 116 (colon) cells; read-out: Cell growth inhibition HCT116 (Colon) TGI,5 µM
same,GI50,[2],1 µM
same,maximum Tumor Volume Inhibition (TVI),HCT116 (colon) xenograft,42%
